Patent US20260306526A1, “COMBINATION THERAPY FOR BACTERIAL INFECTIONS COMPRISING ZINC-CHELATOR, BETA-LACTAM ANTIBIOTIC AND SERINE BETA-LACTAMASE INHIBITOR” (priority 2023, published 2026)

Key:
[1] = test system: Acinetobacter baumannii ST25; assay: MIC determination, fixed concentration of sBLI (Example 10); assay type: cell-based; conditions: with AMP and SUL 16 μg/mL, NDM-1, OXA-58, OXA-64, OXA-10, VEB-21, ADC-26, caMHB, 29.4 μM Zn2+
Experimental: Antimicrobial susceptibility testing (AST) by broth microdilution (MIC determination) was performed according to The European Committee on Antimicrobial Susceptibility Testing (EUCAST) guidelines (see Reading guide for broth microdilution Version 5.0, 2024: https://www.eucast.org).
For combinations containing meropenem as the antibiotic, Sensititre™ FINMER meropenem 64-0.03 μg/mL plates (Thermo Fischer Diagnostics custom plates; YFINMER) were used in most of the experiments. For other antibiotics (and for meropenem whenever a higher start concentration than 64 μg/mL was needed) sterile clear round bottom polystyrene (non-treated) 96-well microplates (Corning 3788) were used for making serial two-fold dilutions of the antibiotic in cation-adjusted Mueller Hinton II broth (caMHB; Thermo Scientific, T3462, containing 29.4 μM Zn^2+ or MILLIPORE, 90922-500G, containing 5.6 μM Zn^2+), across the columns of the microtiter plate (128-0.06 μg/mL; columns 1-12).
The checkerboard plates were all modified by adding a serine β-lactamase inhibitor (sBLI) at a fixed concentration of 16 μg/mL. Additionally, the zinc chelator was added at various fixed concentrations. […]

[2] = test system: Klebsiella pneumoniae Kpn St147; assay: MIC determination, checkerboard broth microdilution, meropenem + zinc chelator + avibactam (Example 1); assay type: cell-based
Experimental: Antimicrobial susceptibility testing (AST) by broth microdilution was performed according to The European Committee on Antimicrobial Susceptibility Testing.
Sensititre™ FINMER meropenem 64-0.03 μg/ml plates (Thermo Fischer Diagnostics custom plates; YFINMER) were modified by adding avibactam to rows 3 to 8 in concentrations of 64, 16, 8, 4, 1 and 0.25 μg/ml, respectively. The zinc chelator was added to the wells of the plate, where applicable. Three plates were made per experiment, one without the zinc chelator (plate 1), one with 16 μg/ml of the zinc chelator (plate 2) and one with 32 μg/ml of the zinc chelator (plate 3). The first row in all plates was used as a positive control for meropenem only, and the second row included the zinc chelator in addition to meropenem (no avibactam added to rows 1 or 2). The zinc chelator was added at the indicated concentration to rows 3-8 of plates 2 and 3.
The effect of the combination of zinc chelator/MEM/avibactam was tested on a clinically isolated Klebsiella pneumoniae Kpn St147 actively constitutionally expressing the two resistance mechanisms NDM-1 and KPC-2 simultaneously. As a negative control, bacteria+meropenem was tested alone. As a positive control, bacteria+MEM+zinc chelator was used. In Table 1 and 2, concentrations (μg/ml) of meropenem are given in the top row left to right and avibactam concentrations (μg/ml) are given top to bottom in column 1. […] A blank cell indicates no growth.
The fractional inhibitory concentration (FIC) is defined as the concentration that kills when used in combination with another agent divided by the concentration that has the same effect when used alone. The FIC index (FICI) for the combination of two agents is the sum of their individual FIC values. […]

CN(C[C@H](O)[C@@H](O)[C@H](O)[C@H](O)CO)C(=O)c1ccc(CN(Cc2ccccn2)Cc2ccccn2)nc1 [zinc chelator]
Synergy with the zinc chelator observed at concentration [1]: 16 µg/mL | FICI Zinc Chelator ([2]; zinc chelator 16 μg/mL, MEM/avibactam 0.5/0.25 (r9), 0.25/1 (r10), 0.25/4 (r11), 0.06/8 (r12) μg/mL): 0.008 | FICI Zinc Chelator ([2]; zinc chelator 32 μg/mL, MEM/avibactam 0.5/0.25 (r13), 0.12/1 (r14), 0.06/4 (r15), 0.06/8 (r16) μg/mL): 0.016 | amplification of the inhibitory effect ([2]; zinc chelator at 16 μg/ml with MEM + avibactam): about 64 fold
